Measured values published in the supplement of paper PMC12490022.
± gives the uncertainty stated by the source.

The compounds below were run on ozone (assay: apparent second-order rate constant for reaction with ozone (kapp,O3) (M-1 s-1); higher = faster oxidation by ozone). Details: pH 7; temperature: 22 C; OH radical scavenger: tBuOH 80 mM; phosphate 4 mM.
Procedure, shortened: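 Apparent second-order rate constants for reaction with ozone came from multicompound competition kinetics, averaged (± SD) over qualifying competitors. Target/competitor mixtures (10 μg L–1 each before ozone addition) in 4 mM phosphate buffer, pH 7, with 80 mM tert-butanol were dosed with ozone solution (compound:O3 molar ratios 0.0025–100) at 22 ± 1 °C, in triplicate on three days. HPLC-HRMS/MS peak-area abatement (10–90%) was regressed against competitors of known constant, requiring ≥10 points, R2 >0.9 and slope 0.1–10.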

| apparent second-order rate constant | SMILES |
| --- | --- |
| 2e+06 ± 400000 | CC(CN(C)C)CN1c2ccccc2CCc2ccccc21 (stereo not drawn) [Trimipramine] |
| 168 ± 8.7 | COc1ccc(C(C[N+](C)(C)[O-])C2(O)CCCCC2)cc1 (stereo not drawn) [Venlafaxine-N-oxide] |
| 64000 ± 14000 | COc1ccc(CCN(C)CCCC(C#N)(c2ccc(OC)c(OC)c2)C(C)C)cc1OC (stereo not drawn) [Verapamil] |
| 1.8e+08 ± 4e+07 | CC(C)c1c(C(=O)Nc2ccccc2O)c(-c2ccccc2)c(-c2ccc(F)cc2)n1CCC(O)CC(O)CC(=O)O (stereo not drawn) [ortho-Hydroxyatorvastatin] |
| 6.6e+07 ± 1.4e+07 | CC(C)c1c(C(=O)Nc2ccc(O)cc2)c(-c2ccccc2)c(-c2ccc(F)cc2)n1CCC(O)CC(O)CC(=O)O (stereo not drawn) [para-Hydroxyatorvastatin] |

| SMILES | apparent second-order rate constant |
| --- | --- |
| COc1ccc(C(CN(C)C)C2(O)CCCCC2)cc1 (stereo not drawn) [Venlafaxine] | 3440 ± 260 |
| Cc1ccc2nc(-c3ccc(C(=O)O)cc3)c(CC(=O)N(C)C)n2c1 [Zolpidem carboxylic acid] | 6.3e+06 ± 400000 |
| Cc1ccc(-c2nc3ccc(C)cn3c2CC(=O)N(C)C)cc1 [Zolpidem] | 1.28e+07 ± 900000 |
